Assay results as given in patent US20120122896A1, “2,1,3-BENZOXADIAZOL DERIVATIVES FOR THE INHIBITION OF INFLUENZA A AND B VIRUS AND RESPIRATORY SYNCYTIAL VIRUS REPLICATION” (PIKE PHARMA GMBH, priority 2009, published 2012).

Key:
HA-tagged PA from FluB = test: competitive ELISA, PB1 peptide / PA of FluB; type: binding, influenza B virus
HA-tagged PA of FluA = details: read-out: IC50 (nM) PA (FluA)

MDVNPYFLFLKVPAQ [PB11-15 AT6Y, L7F]
IC50 (HA-tagged PA from FluB): 345 nM | IC50 (HA-tagged PA of FluA): 7.51 nM
